Consider ten compounds from ChEMBL document CHEMBL1123971, “Synthesis, platelet aggregation inhibitory activity, and in vivo antithrombotic activity of new 1,4-dihydropyridines” (J Med Chem, 1988).

Holding throughout (format): functional
Experiment [1] is filed under the species Mus musculus. Kind of experiment: Dose required to protect 50% of tested mice against experimental antithrombosis.
Experiment [2] is filed under the species Mus musculus. Nature of the experiment: Effective dose of the compound required to protect […] tested mice against experimental antithrombosis.
Experiment [3] is filed under the species Cavia porcellus. Kind of experiment: Effect on guinea pig artia (beats/min), at the a dose of 0 M.
The species entered for experiment [4] is Cavia porcellus. Nature of the experiment: Effect on guinea pig artia (beats/min), at the a dose of 10e-6 M.
The species entered for experiment [5] is Cavia porcellus. Nature of the experiment: Effect on guinea pig artia (beats/min), at the a dose of 10e-7 M.
Experiment [6] is filed under the species Cavia porcellus. Kind of experiment: Effect on guinea pig artia (beats/min), at the a dose of 10e-9 M.
For experiment [7], the species on record is Cavia porcellus. Nature of the experiment: Effect on guinea pig artia (beats/min), at the a dose of 10e-8 M.
The species named for experiment [8] is Oryctolagus cuniculus. Kind of experiment: Effect on 35 mM K+-induced contraction on rabbit aorta at a dose of 10e-7 mol/L.
For experiment [9], the species on record is Oryctolagus cuniculus. Nature of the experiment: Effect on 35 mM K+-induced contraction on rabbit aorta at a dose of 10e-9 mol/L.
The species entered for experiment [10] is Oryctolagus cuniculus. Kind of experiment: Effect on 35 mM K+-induced contraction on rabbit aorta at a dose of 3*10e-8 mol/L.
For experiment [11], the species on record is Oryctolagus cuniculus. Nature of the experiment: Effect on 35 mM K+-induced contraction on rabbit aorta at a dose of 3*10e-9 mol/L.
Experiment [12] is filed under the species Oryctolagus cuniculus. Kind of experiment: Effect on 35 mM K+-induced contraction on rabbit aorta at a dose of 10e-8 mol/L.

Several values for one entry are separate records, joined by “and”; a condition that tells them apart may be missing. Identical values can stand only once.

With `CO/C(O)=C1\C(C)=NC(C)=C(C(=O)OCN2C(=O)c3ccccc3S2(=O)=O)C1C` (stereo not given), the ED50 in the experiment filed under Mus musculus [1] is > 220 µmol/kg and > 100 mg/kg.
On the same count and under the same terms, next, `CC1=NC(C)=C(C(=O)OCCNC(=O)c2ccccc2O)C(C)/C1=C(\O)OCCN1C(=O)c2ccccc2S1(=O)=O` (stereo not given): 51.4 µmol/kg and 30 mg/kg.
Regarding `Clc1ccccc1CN1CCc2sccc2C1` [TICLOPIDINE], the ED50 in the experiment filed under Mus musculus [1] is 152 µmol/kg and 40 mg/kg.
Take `OCCN(CCO)c1nc(N2CCCCC2)c2nc(N(CCO)CCO)nc(N3CCCCC3)c2n1` [DIPYRIDAMOLE]: the median effective dose (ED50) in the experiment filed under Mus musculus [1] is 143 µmol/kg and 72 mg/kg.
With `CCO/C(O)=C1\C(C)=NC(C)=C(C(=O)OCN2C(=O)c3ccccc3S2(=O)=O)C1C` (stereo not given), the ED50 in the experiment filed under Mus musculus [1] is 134 µmol/kg and 58.3 mg/kg.
For the compound `CC(=O)Oc1ccccc1C(=O)O` [ASPIRIN], the ED30 was 166.66 µM/kg in the experiment filed under Mus musculus [2] and 30 mg/kg in the experiment filed under Mus musculus [2] (Mus musculus, read-out: ED30).
Consider `CO/C(O)=C1\C(C)=NC(C)=C(C(=O)OCCN2C(=O)c3ccccc3S2(=O)=O)C1C` (stereo not given), for which, in the experiment listed under Mus musculus [1], the 50% effective dose (ED50) is 138 µmol/kg and 59.9 mg/kg.
For `CCOC(=O)C1=C(C)NC(C)=C(C(=O)OC)C1c1cccc([N+](=O)[O-])c1` (stereo not given) [NITRENDIPINE], the Beats/min in the experiment listed under Cavia porcellus [3] turned out to be 190; in the experiment filed under Cavia porcellus [4], 153; in the experiment filed under Cavia porcellus [5], 179; in the experiment listed under Cavia porcellus [6], 190; in the experiment filed under Cavia porcellus [7], 185. The Control worked out at 100% in the experiment filed under Cavia porcellus [3]; 81% in the experiment listed under Cavia porcellus [4]; 94% in the experiment listed under Cavia porcellus [5]; 100% in the experiment listed under Cavia porcellus [6]; 97.5% in the experiment listed under Cavia porcellus [7].
Consider `COC(=O)C1=C(C)NC(C)=C(C(=O)OC)C1c1ccccc1[N+](=O)[O-]` [NIFEDIPINE], for which the median effective dose (ED50) in the experiment filed under Mus musculus [1] was 6.93 µmol/kg and 2.4 mg/kg. In addition, the Inhibition in the experiment listed under Oryctolagus cuniculus [8] is on record as 100%; in the experiment filed under Oryctolagus cuniculus [9], 18.28%; in the experiment filed under Oryctolagus cuniculus [10] it was 88.35%; in the experiment listed under Oryctolagus cuniculus [11] it was 41.73%; in the experiment listed under Oryctolagus cuniculus [12], 73.66%.
As for `CCCCC1C(C(=O)OCCN2C(=O)c3ccccc3S2(=O)=O)=C(C)N=C(C)/C1=C(/O)OC` (stereo not given), the 50% effective dose (ED50) in the experiment listed under Mus musculus [1] is 78.4 µmol/kg and 37.3 mg/kg.
